{"source": "ChEMBL document CHEMBL5465560", "about": "“Selectivity Literature for EUbOPEN Chemogenomic Library” (2024)", "key": {"[1]": {"target": "Cyclin-dependent kinase-like 1 (Homo sapiens) (UniProt Q00532)", "sequence (Q00532 whole entry)": "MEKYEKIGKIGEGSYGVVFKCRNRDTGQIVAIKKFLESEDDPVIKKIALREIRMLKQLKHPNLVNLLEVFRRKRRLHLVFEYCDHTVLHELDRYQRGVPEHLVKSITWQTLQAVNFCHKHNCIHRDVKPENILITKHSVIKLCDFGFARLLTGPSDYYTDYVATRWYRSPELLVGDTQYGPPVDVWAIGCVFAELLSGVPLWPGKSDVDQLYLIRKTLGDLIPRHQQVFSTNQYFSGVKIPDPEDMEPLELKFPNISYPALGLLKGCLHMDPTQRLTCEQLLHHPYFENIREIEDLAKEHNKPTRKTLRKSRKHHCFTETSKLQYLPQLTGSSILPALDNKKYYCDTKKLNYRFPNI", "test": "Selectivity interaction (KinomeScan (DiscoverX)) EUB0000229b CDKL1", "conditions": "at 10 µM"}, "[2]": {"target": "T1, Mitogen-activated protein kinase kinase kinase 12 (Homo sapiens) (UniProt Q12852)", "T1 sequence (whole entry)": "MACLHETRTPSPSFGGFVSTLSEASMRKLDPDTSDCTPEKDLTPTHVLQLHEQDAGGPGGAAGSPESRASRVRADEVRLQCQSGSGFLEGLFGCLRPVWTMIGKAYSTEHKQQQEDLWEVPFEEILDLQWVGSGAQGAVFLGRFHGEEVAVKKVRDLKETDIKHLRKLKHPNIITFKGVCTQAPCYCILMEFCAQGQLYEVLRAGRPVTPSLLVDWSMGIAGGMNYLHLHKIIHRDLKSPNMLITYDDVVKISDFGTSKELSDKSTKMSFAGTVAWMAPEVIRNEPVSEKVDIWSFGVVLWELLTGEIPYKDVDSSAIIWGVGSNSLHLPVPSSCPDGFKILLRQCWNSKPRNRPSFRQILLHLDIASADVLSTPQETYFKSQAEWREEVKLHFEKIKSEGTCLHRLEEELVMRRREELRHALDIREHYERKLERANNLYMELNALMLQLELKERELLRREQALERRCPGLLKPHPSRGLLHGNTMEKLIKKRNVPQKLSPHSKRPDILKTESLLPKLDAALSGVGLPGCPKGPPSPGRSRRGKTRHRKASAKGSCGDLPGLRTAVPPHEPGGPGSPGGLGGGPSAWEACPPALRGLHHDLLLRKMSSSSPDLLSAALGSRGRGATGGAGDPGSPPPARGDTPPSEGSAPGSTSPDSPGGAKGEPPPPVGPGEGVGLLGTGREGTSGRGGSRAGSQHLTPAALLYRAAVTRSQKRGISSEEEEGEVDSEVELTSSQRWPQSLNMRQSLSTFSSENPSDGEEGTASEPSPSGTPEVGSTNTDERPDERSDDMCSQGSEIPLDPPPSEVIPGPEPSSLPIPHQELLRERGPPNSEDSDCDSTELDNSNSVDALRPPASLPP", "test": "Selectivity interaction (KinomeScan (DiscoverX)) EUB0000092b MAP3K12", "conditions": "at 10 µM"}, "[3]": {"target": "Epithelial discoidin domain-containing receptor 1 (Homo sapiens) (UniProt Q08345)", "sequence (Q08345 whole entry, the tested form may be a part)": "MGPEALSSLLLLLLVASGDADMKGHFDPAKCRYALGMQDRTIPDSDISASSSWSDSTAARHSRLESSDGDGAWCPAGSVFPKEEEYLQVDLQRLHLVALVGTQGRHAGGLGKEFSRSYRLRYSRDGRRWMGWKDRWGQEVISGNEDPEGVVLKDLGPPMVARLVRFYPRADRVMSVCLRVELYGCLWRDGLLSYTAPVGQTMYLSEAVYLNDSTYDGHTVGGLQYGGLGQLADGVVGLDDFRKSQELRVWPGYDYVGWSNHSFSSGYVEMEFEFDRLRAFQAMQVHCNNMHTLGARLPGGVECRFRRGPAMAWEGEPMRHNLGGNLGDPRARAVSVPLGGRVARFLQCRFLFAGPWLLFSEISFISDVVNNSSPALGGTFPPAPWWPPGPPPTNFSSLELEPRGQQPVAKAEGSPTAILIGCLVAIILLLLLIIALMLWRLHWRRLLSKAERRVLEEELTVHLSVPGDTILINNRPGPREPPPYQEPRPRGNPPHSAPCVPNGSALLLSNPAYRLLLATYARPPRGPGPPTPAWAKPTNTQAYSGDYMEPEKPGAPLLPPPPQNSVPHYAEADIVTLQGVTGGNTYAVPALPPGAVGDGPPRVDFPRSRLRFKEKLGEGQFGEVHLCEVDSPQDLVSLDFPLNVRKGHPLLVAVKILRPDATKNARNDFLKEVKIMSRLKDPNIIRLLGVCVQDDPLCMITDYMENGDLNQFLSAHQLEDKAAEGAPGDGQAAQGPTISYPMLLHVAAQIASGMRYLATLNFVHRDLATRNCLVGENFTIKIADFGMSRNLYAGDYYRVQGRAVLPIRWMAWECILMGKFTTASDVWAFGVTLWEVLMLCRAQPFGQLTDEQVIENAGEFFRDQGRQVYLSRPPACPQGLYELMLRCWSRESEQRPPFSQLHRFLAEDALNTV", "test": "Selectivity interaction (KinomeScan (DiscoverX)) EUB0000666a DDR1", "conditions": "at 10 µM"}, "[4]": {"target": "Serine/threonine-protein kinase N2 (Homo sapiens, UniProt Q16513)", "sequence (Q16513 whole entry, looked up)": "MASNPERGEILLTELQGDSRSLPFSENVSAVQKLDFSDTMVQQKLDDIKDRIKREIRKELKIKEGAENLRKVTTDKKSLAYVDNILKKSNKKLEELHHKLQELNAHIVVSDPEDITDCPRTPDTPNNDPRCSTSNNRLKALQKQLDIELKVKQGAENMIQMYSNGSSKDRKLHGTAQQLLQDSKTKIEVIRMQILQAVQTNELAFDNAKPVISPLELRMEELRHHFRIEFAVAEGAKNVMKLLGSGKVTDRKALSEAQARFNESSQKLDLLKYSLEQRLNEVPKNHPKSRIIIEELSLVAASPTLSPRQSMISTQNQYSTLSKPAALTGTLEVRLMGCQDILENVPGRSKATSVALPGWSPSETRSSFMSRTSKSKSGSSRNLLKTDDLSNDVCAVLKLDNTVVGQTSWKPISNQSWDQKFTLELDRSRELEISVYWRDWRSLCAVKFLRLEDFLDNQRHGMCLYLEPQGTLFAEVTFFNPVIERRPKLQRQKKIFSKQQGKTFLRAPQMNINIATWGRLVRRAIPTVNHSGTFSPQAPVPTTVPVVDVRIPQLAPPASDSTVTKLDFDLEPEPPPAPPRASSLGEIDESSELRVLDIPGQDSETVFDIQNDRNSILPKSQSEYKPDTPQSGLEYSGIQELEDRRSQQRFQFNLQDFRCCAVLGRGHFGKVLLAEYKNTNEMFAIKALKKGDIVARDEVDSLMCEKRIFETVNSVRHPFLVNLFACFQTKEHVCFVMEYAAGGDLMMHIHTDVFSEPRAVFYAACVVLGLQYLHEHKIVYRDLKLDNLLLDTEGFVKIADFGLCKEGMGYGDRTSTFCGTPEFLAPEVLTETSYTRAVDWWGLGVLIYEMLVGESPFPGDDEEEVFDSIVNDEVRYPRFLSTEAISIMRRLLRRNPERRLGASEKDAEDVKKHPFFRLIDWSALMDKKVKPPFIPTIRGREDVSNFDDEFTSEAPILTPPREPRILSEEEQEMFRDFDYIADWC", "test": "Selectivity interaction (ActivX KiNativ screen (kinase selectivity in THP-1 cell lysates)) EUB0000639a PKN2", "type": "subcellular", "conditions": "lysate"}, "[5]": {"target": "T2, Serine/threonine-protein kinase TAO2 (Homo sapiens) (UniProt Q9UL54)", "T2 sequence (whole entry)": "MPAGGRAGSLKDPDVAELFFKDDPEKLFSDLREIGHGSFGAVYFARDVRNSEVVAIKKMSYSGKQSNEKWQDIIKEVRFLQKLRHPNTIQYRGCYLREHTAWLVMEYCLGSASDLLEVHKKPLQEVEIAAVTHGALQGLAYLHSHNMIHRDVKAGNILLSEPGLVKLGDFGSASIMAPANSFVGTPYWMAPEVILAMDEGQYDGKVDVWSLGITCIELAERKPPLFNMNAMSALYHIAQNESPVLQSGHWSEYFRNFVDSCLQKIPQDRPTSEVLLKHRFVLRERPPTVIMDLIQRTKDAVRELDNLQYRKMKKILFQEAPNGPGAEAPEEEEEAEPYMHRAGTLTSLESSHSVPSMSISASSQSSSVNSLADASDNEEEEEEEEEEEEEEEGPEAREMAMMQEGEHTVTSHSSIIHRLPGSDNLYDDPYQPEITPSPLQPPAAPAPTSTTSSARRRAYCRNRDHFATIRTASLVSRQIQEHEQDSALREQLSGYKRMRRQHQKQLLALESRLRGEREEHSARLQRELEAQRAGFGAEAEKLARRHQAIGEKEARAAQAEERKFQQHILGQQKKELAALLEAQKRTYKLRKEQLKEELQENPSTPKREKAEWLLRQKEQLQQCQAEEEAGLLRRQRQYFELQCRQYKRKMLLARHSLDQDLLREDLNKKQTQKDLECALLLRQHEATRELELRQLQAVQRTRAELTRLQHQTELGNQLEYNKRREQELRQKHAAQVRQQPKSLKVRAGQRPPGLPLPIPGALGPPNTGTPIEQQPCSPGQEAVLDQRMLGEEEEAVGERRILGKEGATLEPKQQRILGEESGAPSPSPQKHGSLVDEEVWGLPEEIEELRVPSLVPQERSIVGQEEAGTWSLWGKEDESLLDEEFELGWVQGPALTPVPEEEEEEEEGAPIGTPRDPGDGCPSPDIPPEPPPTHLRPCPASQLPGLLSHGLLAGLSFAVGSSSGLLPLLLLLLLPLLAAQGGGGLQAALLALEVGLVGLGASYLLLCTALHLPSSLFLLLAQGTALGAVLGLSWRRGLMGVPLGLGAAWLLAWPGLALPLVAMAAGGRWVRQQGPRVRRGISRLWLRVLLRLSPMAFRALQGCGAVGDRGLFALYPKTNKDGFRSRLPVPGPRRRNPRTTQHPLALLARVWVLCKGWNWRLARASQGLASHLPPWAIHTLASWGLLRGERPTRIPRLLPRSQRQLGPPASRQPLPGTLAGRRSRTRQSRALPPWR", "test": "Selectivity interaction (KinomeScan (DiscoverX)) EUB0000695a TAOK2", "conditions": "at 100 nM"}, "[6]": {"target": "Ephrin type-A receptor 5 (Homo sapiens) (UniProt P54756)", "sequence (P54756 whole entry)": "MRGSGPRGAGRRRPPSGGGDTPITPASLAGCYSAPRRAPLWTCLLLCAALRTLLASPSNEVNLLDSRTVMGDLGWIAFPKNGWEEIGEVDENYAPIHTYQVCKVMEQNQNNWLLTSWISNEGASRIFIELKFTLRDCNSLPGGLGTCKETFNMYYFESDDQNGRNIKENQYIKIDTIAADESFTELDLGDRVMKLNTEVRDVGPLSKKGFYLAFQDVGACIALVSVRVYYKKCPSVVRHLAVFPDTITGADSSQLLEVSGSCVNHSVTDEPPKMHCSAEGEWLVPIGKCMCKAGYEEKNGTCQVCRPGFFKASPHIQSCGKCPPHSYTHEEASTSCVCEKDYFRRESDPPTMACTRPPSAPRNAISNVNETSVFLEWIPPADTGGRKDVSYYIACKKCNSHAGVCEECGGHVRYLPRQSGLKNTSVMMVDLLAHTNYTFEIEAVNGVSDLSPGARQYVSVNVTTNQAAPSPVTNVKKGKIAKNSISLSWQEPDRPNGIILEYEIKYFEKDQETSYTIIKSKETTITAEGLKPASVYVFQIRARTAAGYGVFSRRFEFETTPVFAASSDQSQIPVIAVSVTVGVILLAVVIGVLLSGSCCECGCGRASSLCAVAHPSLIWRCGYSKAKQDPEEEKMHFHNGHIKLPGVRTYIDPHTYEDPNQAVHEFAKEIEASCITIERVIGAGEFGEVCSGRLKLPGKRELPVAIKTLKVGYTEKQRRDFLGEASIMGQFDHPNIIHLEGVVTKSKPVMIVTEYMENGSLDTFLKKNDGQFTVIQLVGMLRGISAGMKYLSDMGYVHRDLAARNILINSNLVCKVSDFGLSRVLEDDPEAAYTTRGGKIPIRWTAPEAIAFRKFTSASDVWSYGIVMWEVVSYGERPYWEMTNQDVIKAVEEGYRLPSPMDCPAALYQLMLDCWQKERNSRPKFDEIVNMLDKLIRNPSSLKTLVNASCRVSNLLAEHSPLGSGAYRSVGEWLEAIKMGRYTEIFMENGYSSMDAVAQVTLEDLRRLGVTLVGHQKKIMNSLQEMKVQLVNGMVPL", "test": "Selectivity interaction (KinomeScan (DiscoverX)) EUB0001619a EPHA5", "conditions": "at 1 µM"}}}
{"smiles": "COc1cc(N(C)c2ccnc3ccc(C(F)(F)F)cc23)cc(OC)c1OC", "values": [{"measurement": "% binding", "setting": "[1]", "value": 70, "unit": "%"}]}
{"smiles": "CCC(=O)N1CCN(c2ccc(-n3c(=O)ccc4cnc5ccc(-c6cnc7ccccc7c6)cc5c43)cc2C(F)(F)F)CC1", "values": [{"measurement": "% of control", "setting": "[2]", "value": 100, "unit": "%"}]}
{"smiles": "O=C(NOC[C@H](O)CO)c1ccc(F)c(F)c1Nc1ccc(I)cc1F", "values": [{"measurement": "% of control", "setting": "[3]", "value": 50, "unit": "%"}]}
{"smiles": "CC[C@@H]1[C@H](F)C(=O)N[C@@H]1COc1nccc2cc(C(N)=O)c(OC)cc12", "note": "[ZIMLOVISERTIB]", "values": [{"measurement": "% of inhibition", "setting": "[4]; at 0.01 µM", "value": -6.1, "unit": "%"}, {"measurement": "% of inhibition", "setting": "[4]; at 0.04 µM", "value": -5.7, "unit": "%"}, {"measurement": "% of inhibition", "setting": "[4]; at 0.2 µM", "value": 2.9, "unit": "%"}, {"measurement": "% of inhibition", "setting": "[4]; at 1 µM", "value": 18.9, "unit": "%"}, {"measurement": "% of inhibition", "setting": "[4]; at 5 µM", "value": -9.1, "unit": "%"}]}
{"smiles": "Cc1cc(F)c(C(=O)Nc2cccc(-c3nncn3C(C)C)n2)cc1-n1cnc(C2CC2)c1", "values": [{"measurement": "% of control", "setting": "[5]", "value": 100, "unit": "%"}]}
{"smiles": "N#Cc1cccc(-c2c[nH]c3ncnc(N4CCOCC4)c23)c1", "values": [{"measurement": "% of control", "setting": "[6]", "value": 99, "unit": "%"}]}
